Measured values as given in patent US5391552A, “Diphenylpiperazine derivative and drug for circulatory organ containing the same” (Pola Chemical Industries, Inc., priority 1990, dated 1995).

Assays:
[1] = system: calcium; experiment: Antagonism against calcium: inhibition of KCl-induced contraction of rat aorta ring specimens (Magnus tube, Test Example 1); set-up: species or system Male Wistar rats; conditions: inhibits 50% of the maximum contraction by KCl (10-60 mM); rat aorta rings, 37 °C; read-out: 50% inhibitory concentration
Procedure: Male Wistar rats (300-350g) were exsanguinated to death and submitted to thoracotomy to take off aortae. Ring specimens having a width of 3 to 4 mm were prepared from the aortae. The specimen was suspended in a Magnus tube which was filled with Krebs Henseleit liquid of 37°±0.5° C., aerated with a mixing gas (95% of O2 and 5% of CO2) flowing in the liquid. A load of approximately 2 g was given to the specimen, and a tension variation was isometrically recorded.

[2] = system: vertebral artery; experiment: Variation of vertebral artery blood flow amount in anesthetized dogs (Test Example 2); assay type: in vivo, crossbred adult dogs; conditions: i.v.
Procedure: After female and male crossbred adult dogs were put under anesthesia by using pentobarbital-Na, a cannula for blood pressure measuring and a cannula for drug dosing were set to the femoral artery and the femoral vein, respectively. The blood flow was measured using a probe fixed to the vertebral artery.

OC(CNCCc1ccccc1)CN1CCN(C(c2ccccc2)c2ccccc2)CC1 (stereo not drawn) [Compound 3, 1-Diphenylmethyl-4-[2-hydroxy-3-(2-phenylethylamino)propyl]piperazine]
IC50 [1]: 1300 nM

COc1ccccc1CCNCC(O)CN1CCN(C(c2ccccc2)c2ccccc2)CC1 (stereo not drawn) [Compound 4, 1-Diphenylmethyl-4-[2-hydroxy-3-{2-(2-methoxyphenyl)ethylamino}propyl]piperazine]
IC50 [1]: 1300 nM

COc1ccc(CCNCC(O)CN2CCN(C(c3ccccc3)c3ccccc3)CC2)cc1OC (stereo not drawn) [Compound 5, 1-[3-{2-(3,4-Dimethoxyphenyl)ethylamino}-2-hydroxypropyl]-4-diphenylmethylpiperazine]
IC50 [1]: 1200 nM

OC(CNc1ccccc1)CN1CCN(CCCC(c2ccc(F)cc2)c2ccc(F)cc2)CC1 (stereo not drawn) [Compound 6, 1-[4,4-Bis(4-fluorophenyl)butyl]-4-(2-hydroxy-3-phenylaminopropyl)piperazine]
IC50 [1]: 220 nM

OC(CSc1ccccc1)CN1CCN(CCCC(c2ccc(F)cc2)c2ccc(F)cc2)CC1 (stereo not drawn) [Compound 10, 1-[4,4-Bis(4-fluorophenyl)butyl]-4-(2-hydroxy-3-phenylthiopropyl)piperazine.2HCl]
IC50 [1]: 160 nM
Variation of the blood flow amount ([2]; 10 μg/kg): 18%
Variation of the blood flow amount ([2]; 30 μg/kg): 14%
Variation of the blood flow amount ([2]; 100 μg/kg): 80%
Variation of the blood flow amount ([2]; 300 μg/kg): 125%

COC(CSc1ccccc1)CN1CCN(CCCC(c2ccc(F)cc2)c2ccc(F)cc2)CC1 (stereo not drawn) [Compound 12, 1-[4,4-Bis(4-fluorophenyl)butyl]-4-(2-methoxy-3-phenylthiopropyl)piperazine.2HCl]
IC50 [1]: 200 nM

CC(=O)OC(CSc1ccccc1)CN1CCN(CCCC(c2ccc(F)cc2)c2ccc(F)cc2)CC1 (stereo not drawn) [Compound 14, 1-(2-Acetoxy-3-phenylthiopropyl)-4-[4,4-bis(4-fluorophenyl)butyl]piperazine.2HCl]
IC50 [1]: 280 nM

O[C@H](CSc1ccccc1)CN1CCN(CCCC(c2ccc(F)cc2)c2ccc(F)cc2)CC1 [Compound 16, (S)-(-)-1-[4,4-Bis(4-fluorophenyl)butyl]-4-(2-hydroxy-3-phenylthiopropyl)piperazine]
IC50 [1]: 100 nM

O[C@@H](CSc1ccccc1)CN1CCN(CCCC(c2ccc(F)cc2)c2ccc(F)cc2)CC1 [Compound 18, (R)-(+)-1-[4,4-Bis(4-fluorophenyl)butyl]-4-(2-hydroxy-3-phenylthiopropyl)piperazine]
IC50 [1]: 130 nM

Cc1ccc(SCC(O)CN2CCN(CCCC(c3ccc(F)cc3)c3ccc(F)cc3)CC2)cc1 (stereo not drawn) [Compound 20, 1-[4,4-Bis(4-fluorophenyl)butyl]-4-[2-hydroxy-3-(4methylphenylthio)propyl]piperazine]
IC50 [1]: 270 nM

Nc1ccc(SCC(O)CN2CCN(CCCC(c3ccc(F)cc3)c3ccc(F)cc3)CC2)cc1 (stereo not drawn) [Compound 22, 1-[(4-Aminophenylthio)-2-hydroxypropyl]-4-[4,4bis(4-fluorophenyl)butyl]piperazine]
IC50 [1]: 630 nM

OC(CSCc1ccccc1)CN1CCN(C(c2ccc(F)cc2)c2ccc(F)cc2)CC1 (stereo not drawn) [Compound 24, 1-[Bis(4-fluorophenyl)methyl]-4-(2-hydroxy-3-phenylmethylthiopropyl)piperazine]
IC50 [1]: 1400 nM

OC(CSCc1ccccc1)CN1CCN(CCCC(c2ccc(F)cc2)c2ccc(F)cc2)CC1 (stereo not drawn) [Compound 28, 1-[4,4-Bis(4-fluorophenyl)butyl]-4-(2-hydroxy-3-phenylmethylthiopropyl)piperazine]
IC50 [1]: 110 nM

OC(CSc1ccc(Cl)cc1)CN1CCN(CCCC(c2ccc(F)cc2)c2ccc(F)cc2)CC1 (stereo not drawn) [Compound 31, 1-[4,4-Bis(4-fluorophenyl)butyl]-4-[3-(4-chlorophenylthio)-2-hydroxyproply]piperazine]
IC50 [1]: 1100 nM

COc1ccccc1SCC(O)CN1CCN(CCCC(c2ccc(F)cc2)c2ccc(F)cc2)CC1 (stereo not drawn) [Compound 35, 1-[4,4-Bis(4-fluorophenyl)butyl]-4-[2-hydroxy-3-(2-methoxyphenylthio)propyl]piperazine]
IC50 [1]: 160 nM
Variation of the blood flow amount ([2]; 10 μg/kg): 13%
Variation of the blood flow amount ([2]; 30 μg/kg): 26%
Variation of the blood flow amount ([2]; 100 μg/kg): 66%
Variation of the blood flow amount ([2]; 300 μg/kg): 87%

OC(CSc1ccc(F)cc1)CN1CCN(CCCC(c2ccc(F)cc2)c2ccc(F)cc2)CC1 (stereo not drawn) [Compound 37, 1-[4,4-Bis(4-fluorophenyl)butyl]-4-[3-(4-fluorophenylthio)-2-hydroxypropyl]piperazine]
IC50 [1]: 140 nM

Oc1ccc(SCC(O)CN2CCN(CCCC(c3ccc(F)cc3)c3ccc(F)cc3)CC2)cc1 (stereo not drawn) [Compound 39, 1-[4,4-Bis(4-fluorophenyl)butyl]-4-[2-hydroxy-3-(4-hydroxyphenylthio)propyl]piperazine]
IC50 [1]: 340 nM

COc1ccc(SCC(O)CN2CCN(CCCC(c3ccc(F)cc3)c3ccc(F)cc3)CC2)cc1 (stereo not drawn) [Compound 41, 1-[4,4-Bis(4-fluorophenyl)butyl]-4-[2-hydroxy-3-(4-methoxyphenylthio)propyl]piperazine]
IC50 [1]: 430 nM
Variation of the blood flow amount ([2]; 10 μg/kg): 12%
Variation of the blood flow amount ([2]; 30 μg/kg): 25%
Variation of the blood flow amount ([2]; 100 μg/kg): 66%
Variation of the blood flow amount ([2]; 300 μg/kg): 87%

COc1cccc(SCC(O)CN2CCN(CCCC(c3ccc(F)cc3)c3ccc(F)cc3)CC2)c1 (stereo not drawn) [Compound 43, 1-[4,4-Bis(4-fluorophenyl)butyl]-4-[2-hydroxy-3-(3-methoxyphenylthio)propyl]piperazine]
IC50 [1]: 280 nM
Variation of the blood flow amount ([2]; 10 μg/kg): 7%
Variation of the blood flow amount ([2]; 30 μg/kg): 15%
Variation of the blood flow amount ([2]; 100 μg/kg): 55%
Variation of the blood flow amount ([2]; 300 μg/kg): 131%

COc1ccccc1SCC(O)CN1CCN(C(c2ccc(F)cc2)c2ccc(F)cc2)CC1 (stereo not drawn) [Compound 45, 1-[Bis(4-fluorophenyl)methyl]-4-[2-hydroxy-3-(2methoxyphenylthio)propyl]piperazine]
IC50 [1]: 1100 nM

OC(CSc1ccccc1)CN1CCN(CC(c2ccccc2)c2ccccc2)CC1 (stereo not drawn) [Compound 47, 1-(2,2-Diphenylethyl)-4-(2-hydroxy-3-phenylthiopropyl)piperazine]
IC50 [1]: 690 nM

OC(CSc1ccccc1)CN1CCN(CCCC(c2ccccc2)c2ccccc2)CC1 (stereo not drawn) [Compound 51, 1-(4,4-Diphenylbutyl)-4-(2-hydroxy-3-phenylthiopropyl)piperazine]
IC50 [1]: 140 nM

OC(CSc1ccccc1)CN1CCN(C(c2ccc(F)cc2)c2ccc(F)cc2)CC1 (stereo not drawn) [Compound 53, 1-[Bis(4-fluorophenyl)methyl]-4-(2-hydroxy-3-phenylthiopropyl)piperazine]
IC50 [1]: 1200 nM

COc1ccc(SCC(O)CN2CCN(C(c3ccc(F)cc3)c3ccc(F)cc3)CC2)cc1 (stereo not drawn) [Compound 55, 1-[Bis (4-fluorophenyl)methyl]-4-[2-hydroxy-3-(4-methoxyphenylthio)propyl]piperazine]
IC50 [1]: 1300 nM

OC(CSc1cccc2ccccc12)CN1CCN(CCCC(c2ccc(F)cc2)c2ccc(F)cc2)CC1 (stereo not drawn) [Compound 57, 1-[4,4-Bis(4-fluorophenyl)butyl]-4-[2-hydroxy-3-(1-naphthylthio)propyl]piperazine]
IC50 [1]: 340 nM

Fc1ccc(C(c2ccc(F)cc2)N2CCN(C/C=C/c3ccccc3)CC2)cc1 [Furnarizine, furnarizine, reference compound]
Variation of the blood flow amount ([2]; 30 μg/kg): 8%
Variation of the blood flow amount ([2]; 100 μg/kg): 27%
Variation of the blood flow amount ([2]; 300 μg/kg): 44%
Variation of the blood flow amount ([2]; 1000 μg/kg): 55%
